Test results: patent US10913736B2 (UNIVERSITY OF WASHINGTON, priority 2014, dated 2021)
“And” between values parts separate entries of the source, which are not always exact repeats. Identical values can stand only once. Like-named read-outs stand apart in the source and are kept apart here.

Legend:
[1] = target: MetRS (T. brucei) (Trypanosoma brucei brucei, UniProt Q38C91); assay: MetRS (T. brucei) ATP depletion assay using Kinase-Glo; type: biochemical
[2] = test system: T. brucei; assay: Growth inhibition assay of T. brucei cell cultures (Alamar Blue, 48 h); type: cell-based
[3] = Trypanosoma brucei; read-out: B) T. brucei EC50

Chain of MetRS (T. brucei) (Q38C91 entry or part of it): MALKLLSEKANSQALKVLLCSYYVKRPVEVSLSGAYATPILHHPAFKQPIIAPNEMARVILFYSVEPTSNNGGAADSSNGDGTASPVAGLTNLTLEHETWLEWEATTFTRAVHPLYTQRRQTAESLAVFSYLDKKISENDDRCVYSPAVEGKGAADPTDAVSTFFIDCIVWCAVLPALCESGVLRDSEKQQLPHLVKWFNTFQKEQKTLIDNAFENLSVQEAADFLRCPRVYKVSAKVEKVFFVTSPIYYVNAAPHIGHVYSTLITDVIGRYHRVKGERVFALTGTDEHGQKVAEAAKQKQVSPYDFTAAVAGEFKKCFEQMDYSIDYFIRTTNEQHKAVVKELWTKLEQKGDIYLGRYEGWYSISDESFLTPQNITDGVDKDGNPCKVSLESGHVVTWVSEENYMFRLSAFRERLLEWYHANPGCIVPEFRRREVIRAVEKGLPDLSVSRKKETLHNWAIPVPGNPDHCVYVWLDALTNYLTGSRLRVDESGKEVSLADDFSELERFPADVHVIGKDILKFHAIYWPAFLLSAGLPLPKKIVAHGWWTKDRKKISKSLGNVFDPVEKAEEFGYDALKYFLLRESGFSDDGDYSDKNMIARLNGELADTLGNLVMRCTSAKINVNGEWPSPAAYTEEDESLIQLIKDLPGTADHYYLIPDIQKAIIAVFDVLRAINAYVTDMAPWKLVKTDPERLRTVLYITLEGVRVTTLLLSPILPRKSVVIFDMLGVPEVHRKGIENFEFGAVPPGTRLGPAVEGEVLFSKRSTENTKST

Structure (SMILES) | IC50 [1] | EC50 [2, 3] [µM] | EC50 ([2]; read-out: B) T. brucei EC50) [µM]
O=C(Cc1cc(Cl)cc(Cl)c1)NCc1nc2cnc(Cl)cc2[nH]1 [Compound 1879, N-({6-chloro-1H-imidazo[4,5-c]pyridin-2-yl}methyl)-2-(3,5-dichlorophenyl)acetamide] | 0.416 µM | 11.2 | –
O=C(NCc1nc2nc(Cl)ccc2[nH]1)Nc1ccc(Cl)cc1Cl [Compound 1891, 3-({5-chloro-3H-imidazo[4,5-b]pyridin-2-yl}methyl)-1-(2,4-dichlorophenyl)urea] | 3.9 µM | > 20 | –
O=C(Cc1cc(Cl)cc(Cl)c1)N1CCCC(c2nc3cc(F)ccc3[nH]2)C1 (stereo not drawn) [Compound 1744, 2-(3,5-dichlorophenyl)-1-(3-(5-fluoro-1H-benzo[d]imidazol-2-yl)piperidin-1-yl)ethanone] | 0.184 µM | 3.26 | –
O=C(NCc1nc2ccccc2[nH]1)C(=O)NCc1ccc(Cl)cc1Cl [Compound 1802, N1-((1H-benzo[d]imidazol-2-yl)methyl)-N2-(2,4-dichlorobenzyl)oxalamide] | 4.29 µM | > 20 | –
O=C(CCNc1ccc(Cl)cc1Cl)NCc1nc2ccccc2[nH]1 [Compound 1763, N-(1H-Benzoimidazol-2-ylmethyl)-3-(2,4-dichloro-phenylamino)-propionamide] | 0.168 µM | 12.7 | –
O=C1N[C@@H](Cc2ccc(Cl)cc2Cl)CN1Cc1nc2ccccc2[nH]1 [Compound 1792, 1-(1H-Benzoimidazol-2-ylmethyl)-4-(2,4-dichloro-benzyl)-imidazolidin-2-one] | 0.15 µM | 2.68 | –
O=C(NCc1nc2ccccc2[nH]1)N[C@H](CO)Cc1ccc(Cl)cc1Cl [Compound 1935, 1-((1H-benzo[d]imidazol-2-yl)methyl)-3-((S)-3-(2,4-dichlorophenyl)-1-hydroxypropan-2-yl)urea] | > 10 µM | 9.36 | –
NC(=O)N(CCCNc1nc2ccc(F)nc2[nH]1)Cc1cc(Cl)cc(Cl)c1 [Compound 1974, 1-(3,5-dichlorobenzyl)-1-(3-(5-fluoro-3H-imidazo[4,5-b]pyridin-2-ylamino)propyl)urea] | 0.007 µM | – | –
O=C1N[C@@H](Cc2ccc(Cl)cc2Cl)C(O)N1Cc1nc2ccccc2[nH]1 (stereo partly drawn) [Compound 1934, (4S)-1-((1H-benzo[d]imidazol-2-yl)methyl)-4-(2,4-dichlorobenzyl)-5-hydroxyimidazolidin-2-one] | 0.118 µM | 2 | –
Clc1cc(Cl)cc(CNC2CCCC(c3nc4cc(Cl)ccc4[nH]3)C2)c1 (stereo not drawn) [Compound 1840, 3-(5-chloro-1H-benzo[d]imidazol-2-yl)-N-(3,5-dichlorobenzyl) cyclohexanamine] | 0.58 µM | 1.95 | –
CC(Cc1nc2ccc(C(F)(F)F)cc2[nH]1)NCc1cc(Cl)cc(Cl)c1 (stereo not drawn) [Compound 1825, [(3,5-dichlorophenyl)methyl]({1-[6-(trifluoromethyl)-1H-1,3-benzodiazol-2-yl]propan-2-yl})amine] | 1.56 µM | 3.65 | –
CCC(=O)NC(CC(=O)NCc1cc(Cl)cc(Cl)c1)c1nc2ccc(Cl)nc2[nH]1 (stereo not drawn) [Compound 1968, 3-{5-chloro-3H-imidazo[4,5-b]pyridin-2-yl}-N-[(3,5-dichlorophenyl)methyl]-3-propanamidopropanamide] | 1.86 µM | > 20 | –
Clc1cc(Cl)cc(CNC2CCN(c3nc4nc(Cl)ccc4[nH]3)CC2)c1 [Compound 1867, 1-(5-chloro-1H-imidazo[4,5-b]pyridin-2-yl)-N-(3,5-dichlorobenzyl)piperidin-4-amine] | 4.97 µM | > 20 | –
O=C(NCc1nc2cccnc2[nH]1)OCc1ccccc1 [Compound 1699, benzyl N-{3H-imidazo[4,5-b]pyridin-2-ylmethyl}carbamate] | 13.1 µM | > 10 | –
Clc1cc(Cl)c2ccn(CCCNc3nc4ccc(Cl)nc4[nH]3)c2c1 [Compound 1996, 5-chloro-N-[3-(4,6-dichloro-1H-indol-1-yl)propyl]-3H-imidazo[4,5-b]pyridin-2-amine] | – | 5.3 | –
CCNc1c(Cl)cc(Cl)cc1CN[C@H]1CCCN(c2nc3nc(Cl)ccc3[nH]2)C1 [Compound 1940, (S)-1-(5-chloro-1H-imidazo[4,5-b]pyridin-2-yl)-N-(3,5-dichloro-2-(ethylamino)benzyl)piperidin-3-amine] | 0.042 µM | 0.359 | –
O=C(CCNCc1cc(Cl)cc(Cl)c1)Nc1nc2ncccc2[nH]1 [Compound 1576, 3-(3,5-dichlorobenzylamino)-N-(3H-imidazo[4,5-b]pyridin-2-yl)propanamide] | 0.109 µM | 0.403 | –
CC(=O)N(Cc1ccc(Cl)cc1Cl)C1CCCC(c2nc3nc(Cl)ccc3[nH]2)C1 (stereo not drawn) [Compound 1810, N-(3-(5-chloro-1H-imidazo[4,5-b]pyridin-2-yl)cyclohexyl)-N-(2,4-dichlorobenzyl)acetamide] | 0.361 µM | 4.53 | –
COc1ccc(Oc2cccc(NCCc3nc4ccccc4[nH]3)n2)c(Cl)c1 [Compound 1918, N-[2-(1H-1,3-benzodiazol-2-yl)ethyl]-6-(2-chloro-4-methoxyphenoxy)pyridin-2-amine] | 1.11 µM | 9.56 | –
O=C(Cc1cc(Cl)cc(Cl)c1)NCc1nc2ccc(Br)cc2[nH]1 [Compound 1873, N-[(6-bromo-1H-1,3-benzodiazol-2-yl)methyl]-2-(3,5-dichlorophenyl)acetamide] | 0.098 µM | 5.5 | –
O=C(CCOc1ccc(Cl)cc1Cl)NC1(c2nc3ccccc3[nH]2)CC1 [Compound 1738, N-(1-(1H-benzo[d]imidazol-2-yl)cyclopropyl)-3-(2,4-dichlorophenoxy)propanamide] | > 10 µM | > 20 | –
O=C(Nc1cc(Cl)cc(Cl)c1)[C@H]1CCCN(c2nc3nc(Cl)ccc3[nH]2)C1 [Compound 1888, (S)-1-(5-chloro-1H-imidazo[4,5-b]pyridin-2-yl)-N-(3,5-dichlorophenyl)piperidine-3-carboxamide] | – | > 20 | –
CC(=O)N(C1CCNc2c(Cl)cc(Cl)cc21)[C@H]1CCCN(c2nc3nc(Cl)ccc3[nH]2)C1 (stereo partly drawn) [Compound 1943] | 2.13 µM and 3.54 µM | 0.419 | 0.389
O=C(Cc1cc(Cl)cc(Cl)c1)N1CCCC(c2nc3cc(Cl)c(Cl)cc3[nH]2)C1 (stereo not drawn) [Compound 1745, 1-(3-(5,6-dichloro-1H-benzo[d]imidazol-2-yl)piperidin-1-yl)-2-(3,5-dichlorophenyl)ethanone] | 0.812 µM | 4.6 | –
O=C(CO)N(CCCNc1nc2ccc(F)nc2[nH]1)Cc1cc(Cl)cc(Cl)c1 [Compound 1973, N-(3,5-dichlorobenzyl)-N-(3-(5-fluoro-3H-imidazo[4,5-b]pyridin-2-ylamino)propyl)-2-hydroxyacetamide] | 0.011 µM | – | –
Clc1cc(Cl)cc(CN[C@H]2CCN(c3nc4ccc(Cl)nc4[nH]3)C2)c1 [Compound 1845, (3S)-1-{5-chloro-3H-imidazo[4,5-b]pyridin-2-yl}-N-[(3,5-dichlorophenyl)methyl]pyrrolidin-3-amine] | 0.047 µM | 1.54 | –
Clc1cc(Cl)cc(CCN2CCCC(c3nc4nc(Cl)ccc4[nH]3)C2)c1 (stereo not drawn) [Compound 1812, 5-chloro-2-(1-(3,5-dichlorophenethyl)piperidin-3-yl)-1H-imidazo[4,5-b]pyridine] | – | 3.76 | –
O=C(N[C@H]1CCCN(c2nc3nc(Cl)ccc3[nH]2)C1)c1cc(Cl)cc(Cl)c1 [Compound 1889] | – | > 20 | –
